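Cells were grown in 96-well plates and exposed to each compound for 48 hours at five concentrations; endpoints were interpolated linearly between bracketing concentrations, or set to the highest concentration if not reached. GI50 = concentration required for 50% inhibition of growth.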 Calls of active or inactive are those of the source. Cut-off read from the data, not from the text of the source: active = GI50 up to about 1.1 µM and inactive = higher.
What was measured:
Assay in all cases: NCI anticancer screen, dose series, 48 h
[1] = system: A498
[2] = system: BT-549
[3] = system: HCC 2998
[4] = system: HL-60
[5] = system: HOP-62
[6] = system: Hs-578T
[7] = system: K562
[8] = system: LOX IMVI
[9] = system: MCF7
[10] = system: MDA-MB-231
[11] = system: MOLT-4
[12] = system: PC-3
[13] = system: SK-MEL-28
[14] = system: SK-MEL-2
[15] = system: SR
[16] = system: U-251
[17] = system: UACC-62
[18] = system: UO-31
[19] = system: A549

Measured: GI50

OC(c1ccc(Cl)cc1)(c1ccc(Cl)cc1)c1cncnc1
inactive: [1] 21.2 µM | [2] 19.2 µM | [3] > 10 µM | [4] > 10 µM | [5] 18.6 µM | [6] 25.3 µM | [7] 4.5 µM | [8] 23.2 µM | [9] 25.9 µM | [10] 18.6 µM | [11] 14.8 µM | [12] 12.9 µM | [13] 18.7 µM | [14] 16.6 µM | [15] 31.7 µM | [16] 19.3 µM | [17] 14.8 µM | [18] 16 µM

O=C1/C(=C/c2ccc(Br)s2)NC(=S)N1CN1CCOCC1
inactive: [1] 35.9 µM | [2] 34 µM | [3] > 100 µM | [4] 23.9 µM | [5] > 100 µM | [6] 65.3 µM | [7] 25.8 µM | [8] 24.5 µM | [9] 25.1 µM | [10] 99.8 µM | [11] 32.7 µM | [12] 78.9 µM | [13] 40.4 µM | [14] 71.9 µM | [15] 21.5 µM | [16] 43 µM | [17] 20.2 µM | [18] 37.5 µM

CN/C(N)=N/N=C1/C(=O)Nc2ccccc21
inactive: [1] > 100 µM | [19] > 100 µM | [2] > 100 µM | [3] > 100 µM | [4] > 100 µM | [5] > 100 µM | [6] > 100 µM | [7] > 100 µM | [8] > 100 µM | [9] > 100 µM | [10] > 100 µM | [11] > 100 µM | [12] > 100 µM | [13] > 100 µM | [14] > 100 µM | [15] > 100 µM | [16] > 100 µM | [17] > 100 µM | [18] > 100 µM

CCSCC(N)C(=O)O (stereo unspecified)
inactive: [1] > 100 µM | [19] > 100 µM | [2] > 100 µM | [4] > 100 µM | [5] > 100 µM | [6] > 100 µM | [8] > 100 µM | [9] > 100 µM | [10] > 100 µM | [12] > 100 µM | [13] > 100 µM | [14] > 100 µM | [15] > 100 µM | [16] > 100 µM | [17] > 100 µM | [18] > 100 µM

— ChEMBL document CHEMBL1201862, “PubChem BioAssay data set” (2004)
